Results on two compounds are retold here after US20140050778A1, “NUCLEIC ACID BINDING COMPOUNDS, METHODS OF MAKING, AND USE THEREOF” (UNIVERSITY OF ROCHESTER, priority 2010, published 2014).

For one data set, the target named is (CUG)10 RNA. Description: Fluorescence titration (benzo[g]quinoline quenching). It counts as binding. The following applies: (CUG)10, 1 μM compound in HBS-N, read-out: Apparent KD. The protocol: The benzo[g]quinoline moiety is fluorescent, with excitation and emission maxima at 362 nm and 439 nm respectively in methanol. Fluorescence titration binding measurements were performed on a Cary Eclipse fluorescence spectrophotometer using a 10 mm path-length semimicro quartz fluorescence cell with 400 μL sample holding capacity. Absorbance measurements were carried out on a UV-Visible spectrophotometer (Shimadzu, UV-1601PC) using a 1 mL (1 cm path-length) quartz cell. Spectroscopic grade anhydrous methanol used in the measurement of relative quantum yield of the 2-ethyl benzo[g]quinoline carboxylic acid was purchased from Alfa Aesar and was used without further purification. For these measurements, known procedures were used (Lee and Grissom, “Design, Synthesis, and Characterization of Fluorescent Cobalamin Analogues with High Quantum Efficiencies,” Org. Lett. 11:2499-2502 (2009); Joseph R. Lakowicz, Principles of Fluorescence Spectroscopy, 2nd edition (Kluwer Academic/Plenum Publishers, 1999), which are hereby incorporated by reference in their entirety). Briefly, RNA (10 μM stock) in HBS-N buffer was titrated into a solution of 1 μM compound in HBS-N. After each addition of RNA, ten minutes were allowed for equilibration before recording the change in fluorescence at 468.5 nm. Fluorescence units (“FU”) were then corrected for dilution and the FU after each addition was subtracted from the FU at zero RNA concentration to give AFU. Following saturation, AFU was plotted against RNA concentration using Origin 7 (OriginLab, Inc.), and fitted to a 1:1 Langmuir binding model to obtain apparent dissociation constants (Kn). […]
Selected equilibrium affinities for (CUG)10 were confirmed by fluorescence titration. The quantum yield of the ethylbenzo[g]quinoline carboxylic acid (compound 2), relative to quinine sulfate, was determined to be 0.64 (FIGS. 5A-F). […] Apparent KD values measured in this manner are consistent with those obtained by SPR (Table 6); that they are not identical to SPR-measured values likely results from the differing formats of the two methods. […]

The test system of the next data set is mouse C2C12 myoblasts. The experiment in a line: Cell permeability by fluorescence microscopy. To be noted: 12 h, 125 μM, intrinsic fluorescence. Format: cell-based. As to the method: For cell permeability studies, human fibroblasts or mouse myoblasts grown to 80% confluence were exposed to compounds for 12 hours in a 96 well tissue culture plate. After removal of the culture media (DMEM, with 10% FBS, 1% pen-strep (GIBCO)) the cells were washed twice with PBS to remove excess compounds. Cells were then imaged while in buffer under a fluorescence microscope (Olympus IX70) in the 96-well plate using a 460 nm emission filter.

Data set [1] has as its system C5-14 C2C12 mouse myoblasts ((CUG)800 RNA-MBNL1 complexes). Description: Firefly luciferase reporter with ~800 CUG repeats in hDMPK 3'UTR. Format: cell-based. The following applies: C5-14 myoblasts, 3 days; compound 4 0-100 μM, compound 11 0-200 μM. As to the method: (§1) The ability of selected compounds to inhibit the formation of CUG^exp RNA-MBNL1 complexes in mouse myoblasts was then evaluated. […] Cells were grown in 100 μl growth media in 96-well plates to 10% confluency. […] Culture media was replaced with fresh media containing 1% WST-1 reagent (Roche). After 15-20 minutes of incubation, the WST-1 containing media was transferred to a clear 96-well plate, and the absorbances at 450 nm and 690 nm measured with a PerkinElmer EnVision Plate Reader. Cells were gently rinsed (1×PBS) before incubation at -20° C. in 100 μl 1X Passive Lysis Buffer (Promega) for 10 minutes. Immediately before luminescence detection, 20 μl of each lysate was mixed with 50 μl of Luciferase Assay Reagent (Promega) in a fresh opaque-white 96-well plate. Luminescence values were normalized for well-to-well variations in viable cell numbers by dividing by the corresponding (A450 nm-[…] nm) values of the WST-1 containing media. […] Thus, CUG^exp binding compounds are capable of releasing the sequestered mRNA transcripts into the cytoplasm for translation.

Data set [2] concerns C1-S C2C12 mouse myoblasts. Description: Firefly luciferase reporter without CUG repeats (control). It counts as cell-based. The following applies: C1-S cells (no CUG repeats), 3 days. The protocol: as §1
Data set [3] has as its system C1-S cells. Description: WST-1 viability. The following applies: C1-S cells at the assay concentrations. It counts as cell-based, mouse. As to the method:
The ability of selected compounds to inhibit the formation of CUG^exp RNA-MBNL1 complexes in mouse myoblasts was then evaluated. For this study, C2C12 mouse myoblasts engineered to stably express a firefly luciferase transcript with or without ˜800 uninterrupted CUG repeats in an hDMPK 3′UTR (clones C5-14 and C1-S, respectively) were used. Cells were grown in 100 μl growth media in 96-well plates to ˜10% confluency. Compound was added at various concentrations in triplicate to both C1-S and C5-14 cultures, and incubated for 3 days. Culture media was replaced with fresh media containing 1% WST-1 reagent (Roche). After ˜15-20 minutes of incubation, the WST-1 containing media was transferred to a clear 96-well plate, and the absorbances at 450 nm and 690 nm measured with a PerkinElmer EnVision Plate Reader. Cells were gently rinsed (1×PBS) before incubation at −20° C. in 100 μl 1X Passive Lysis Buffer (Promega) for 10 minutes. Immediately before luminescence detection, 20 μl of each lysate was mixed with 50 μl of Luciferase Assay Reagent (Promega) in a fresh opaque-white 96-well plate. Luminescence values were normalized for well-to-well variations in viable cell numbers by dividing by the corresponding (A450 nm-A690 nm) values of the WST-1 containing media.
In general terms: Formazan colour is commonly taken as a measure of viable cells.

The subject of data set [4] is C1-S cells. The experiment in a line: Total protein in cell lysates (Bradford assay). Format: cell-based, mouse. To be noted: increasing concentration.
Another data set relates to C5-14 cells. It counts as cell-based, mouse. From the text: Formation of (CUG)800 RNA-MBNL1 complexes in the C5-14 cell line suppresses translation of this mRNA and, therefore, suppresses the cellular level of luciferase Inhibition of protein complexation to the (CUG)800 RNA allows translation to occur, restoring luciferase expression. A second cell line (C1-S) carrying an analogous luciferase construct lacking the CUG repeats in the 3′-UTR was used as a positive control for luciferase expression. […] It was hypothesized that binding of the compounds of the present invention to the (CUG)800 repeat in C5-14 cells would likewise promote release of the luciferase transcripts from the nucleus, resulting in increased luciferase expression and activity. In contrast, luciferase activity in positive control (C1-S) cells should not be affected by the presence of CUG RNA binding compounds. […] The fact that this effect is not observed for compounds 10 and 11 likely results from their greater selectivity for CUG repeats. Thus, CUG^exp binding compounds are capable of releasing the sequestered mRNA transcripts into the cytoplasm for translation.

The structures appear in SMILES notation.

Regarding `CCc1nc2cc3ccccc3cc2cc1C(=O)N1CCC[C@H]1C(=O)N[C@@H](C/C=C/C[C@H](NC(=O)[C@@H]1CCCN1C(=O)c1cc2cc3ccccc3cc2nc1CC)C(=O)N[C@@H](CCCCN)C(=O)NCCCN)C(=O)N[C@@H](CCCCN)C(=O)NCCCN` [Compound 5], the Kd on (CUG)10 RNA was 0.0704 ± 0.0011 µM. Further, the “cell membrane penetration / localization” value in the data set on mouse C2C12 myoblasts was “readily penetrate cell membranes and localize in the nucleus”.
For the compound `CCc1nc2cc3ccccc3cc2cc1C(=O)N1CCC[C@H]1C(=O)N[C@@H](C/C=C\C[C@H](NC(=O)[C@@H]1CCCN1C(=O)c1cc2cc3ccccc3cc2nc1CC)C(=O)N[C@@H](CCCCN)C(=O)NCCCN)C(=O)N[C@@H](CCCCN)C(=O)NCCCN` [Compound 4], the Kd on (CUG)10 RNA turned out to be 0.0663 ± 0.0021 µM. Also, the luciferase activity result in data set [1] is “concentration-dependent increases in luciferase activity”. Further, in data set [2], the luciferase signal entry was “concentration-dependent decrease in luciferase activity”. Also, the WST-1 viability result with C1-S cells [3] was “no observable toxicity”. The “concentration of total protein in cell lysates” value with C1-S cells [4] and in the data set on C5-14 cells was “decreasing level of protein expression” throughout.
